# Results: a melting point compilation (Tetko et al.; mined from patent text by program, amines drawn as free bases though some values may be those of a salt)
row,Compound,melting point
1,O=C(Cl)Cc1ccc(-c2ccc(F)cc2F)c(F)c1,70 to 73 °C
2,CSc1cccc(-n2ncc(-c3ccc(S(C)(=O)=O)cc3)c(-c3ccc(F)cc3)c2=O)c1,196 °C
3,CC(=O)c1cc(S(=O)(=O)c2ccccc2)ccc1O,156 to 157 °C
4,CCCCCCCCOc1ccc(-c2cnc(C(=O)O)c(C(=O)O)n2)cc1,163 °C
5,CC(C)N(C(=O)CCCCCC(=O)O)c1ccccc1,62 to 63 °C
6,OC(CCc1cccnc1)COc1ccc(C=Cc2ccccc2)cc1 (configuration not stated),110 to 111 °C
7,CC(C)(C)OC(=O)N1C[C@H](C#N)C[C@H]1C(=O)OCc1ccccc1,97 to 99 °C
8,Cc1ccc(C)c(C(Cl)=NNc2ccccc2)c1,48.5 to 49 °C
9,O=S(=O)(c1ccc(Cn2cnnn2)cc1)C1CCN(CCc2ccc(F)cc2F)CC1,168 to 169 °C
10,CC1C(=O)N(C2CCCC2)C(=S)N1c1ccc(Oc2ccccc2)cc1 (configuration not stated),99 °C
11,CC1C(=NO)CC2(O)C3Cc4ccc(O)c5c4C2(CCN3CC2CC2)C1O5 (configuration not stated),172 to 173 °C
12,O=C(CCc1cccc(Oc2ccccc2)c1)c1ccc[nH]1,75 to 76 °C
13,CCCc1ccc(NC2CCN(c3ccc(OC[C@@]4(C)Cn5cc([N+](=O)[O-])nc5O4)cc3)CC2)cc1,222 to 223 °C
14,N#CCc1ccc2oc3ncccc3c(=O)c2c1,198 to 201 °C
15,NC(=O)N1CCN(c2nn(-c3ccccc3)c3ccccc23)CC1,151 to 153 °C
16,c1nc(Nc2ccc3[nH]ccc3c2)c2sc(-c3ccc(CN4CCOCC4)cc3)cc2n1,141 to 152 °C
17,O=C(NC1CCN(Cc2ccccc2)CC1)c1cccc(OCc2ccc3ccccc3n2)c1,60 to 62 °C
18,CON=C(C(=O)O)c1nsc(NC=O)n1,185 to 186 °C
19,Nc1cc(C(c2c(F)ccc(F)c2F)S(=O)(=O)CCC(F)(F)F)c(Cl)cn1 (configuration not stated),155 to 159 °C
20,C=CCn1c(C)nc2c1CC(C(=O)OCC)C1=C2NC2(CC1=O)Cc1ccccc1C2 (configuration not stated),164 to 165 °C
21,O=C(Nc1cccnc1)N1CCN(c2cc(-c3cccc(F)c3F)ncn2)CC1,179 to 180 °C
22,CCCCN(Cc1ccc(-c2ccccc2-c2nnn[nH]2)cc1)c1ncccc1CNC(C)=O,108 to 110 °C

row,Compound,melting point
1,Cc1nn(C)c2nc3n(c(=O)c12)CCS3,229 to 230 °C
2,Cc1c(C)c2c(c(C)c1O)CCC(C)(C(=O)NCC1(c3ccc(-n4c(C)ccc4C)cc3)CCCC1)O2 (configuration not stated),90 to 94 °C
3,NC1CCc2ccccc2N(CC(=O)O)C1=O (configuration not stated),147 to 150 °C
4,O=C(Nc1cc2nc(-c3ccc(C(=O)C45CC6CC(CC(C6)C4)C5)cc3)[nH]c2cn1)C12CC3CC(CC(C3)C1)C2,265 °C
5,CN1C(=O)CC[C@]2(C)c3ccc(-c4c5ccccc5cc5ccccc45)cc3CC[C@@H]12,95 to 110 °C
6,O=C(CCc1nc(-c2ccccn2)no1)NC1CCN(Cc2ccc(Cl)c(Cl)c2)CC1,155 °C
7,CC(C)(C)C(O)C(Cn1cncn1)Oc1ccc(Cl)cc1 (configuration not stated),103 °C
8,N#Cc1ccc(-c2ccc(Cl)cc2Cl)c(F)c1,65 to 67 °C
9,CC(C)c1cc(C(C)C)c(CC#N)c(C(C)C)c1C#N,98 to 101 °C
10,O=C1CCCC(Sc2ccccc2)=C1C(=O)c1ccc(Cl)c(OCCn2cnnn2)c1Cl,64 to 70 °C
11,COC(=O)Oc1ccc(N=C(C#N)c2ccccc2)cc1,145 to 146 °C
12,O=C(Nc1ccc(C(F)(F)F)cc1)c1cc(-c2ccc(F)cc2F)ccc1O,227 to 228 °C
13,Cc1ccc(C(=O)c2ccncc2C(=O)O)cc1,230 to 231 °C
14,NC1=NC(c2ccncc2)(c2cccc(-c3cccnc3F)c2)C2=NCCCN12 (configuration not stated),125 to 131 °C
15,CCCCN(CCCC)C(=O)/C=C/c1ccc(Cn2c(-c3ccc(O)cc3)c(C)c3cc(O)ccc32)cc1,126 to 128 °C
16,CCCCC[C@H]1CC[C@H](CCc2ccc(-c3ccc(Br)cc3F)cc2)CC1,57.5 °C
17,Oc1ccc(-c2noc(C3(CSc4ccccc4)CC3)c2-c2ccccc2)cc1,180 to 181 °C
18,CC(C)(C)c1cc(CS[C@@H]2CCCC[C@H]2SCc2cc(C(C)(C)C)cc(C(C)(C)C)c2O)c(O)c(C(C)(C)C)c1 (relative stereo),104 to 106 °C
19,O=C(O)c1ccc(C(F)F)c2ccccc12,179 to 180 °C
20,CS(=O)(=O)c1ccc(-c2coc3ccc(-c4nnc(O)o4)cc23)cc1,284 to 285 °C
21,CN(C)c1nc(N(C)C)nc(N(C)Cc2ccc(O)cc2)n1,163 to 164 °C
22,CCn1c(C(F)(F)F)n[nH]c1=O,54 °C

row,Compound,melting point
1,O=S1(=O)NC(C2CCCCC2)Nc2ccc(S(=O)(=O)N3CCCCC3)cc21 (configuration not stated),262 to 264 °C
2,O=C(NCCc1ccn(-c2cc3nc(C(=O)O)c(=O)[nH]c3cc2F)c1)Nc1ccc(C(=O)O)cc1,> 300 °C
3,O=C(CN1CCNCCNCCNCC1)Nc1c(I)cc(I)c(C(=O)O)c1I,245 to 246 °C
4,CN(C)c1ncnc2c1ncn2Cc1c(Cl)cccc1Cl,174 to 175 °C
5,O=C(Nc1cccnc1NCc1ccc(Cl)cc1)c1ccccc1F,76 to 78 °C
6,COc1ccc(CCc2c(Cc3ccccc3)sc3ccccc23)cc1,68 to 70 °C
7,COc1ccc(C2CC3(C)C(=O)CCC3C3CCC4=CC(=O)CCC4C23)cc1 (configuration not stated),155 to 156 °C
8,Cc1cccc(N2CCOC2=O)c1CNc1cccn2c(C=O)c(C)nc12,196 to 197 °C
9,Cc1cn(CCCC(=O)O)c2ccccc12,82 to 84 °C
10,O=C(N[C@H](Cc1ccccc1)C(=O)O)OCc1ccc2oc(Cc3ccccc3)cc2c1,201 to 204 °C
11,Fc1ccc(CC2C=CC(OCc3ccccc3)=C3N=C4CCCCC4=C32)cc1 (configuration not stated),134 to 135 °C
12,Clc1ccc2c(c1)-c1nnnn1-c1ccccc1O2,209 to 211 °C
13,CCn1ncnc1COc1nn2c(-c3ccc(F)cc3F)nncc2c1C(C)(C)C,145 °C
14,CC1=C(CN(C)C(=O)N2CCN(C(N)=O)CC2)C(C)(C)CCC1,140 °C
15,Cc1c(Cc2cccc(C(F)(F)F)c2)sc2c(-c3cc(F)cc(C(=O)NCCO)c3)cccc12,151 to 152 °C
16,CN=C(SC)N(C)Cc1cccnc1Cl,106 to 113 °C
17,O=C1c2nccc(Br)c2C(=O)c2c(-c3ccccc3NC(=O)C(F)(F)F)ccnc21,145 °C
18,CC(=O)Nc1ccccc1-n1cc2c(c1-c1ccccc1)c(=O)n(C)c(=O)n2C,> 250 °C
19,CC(=O)Nc1ccccc1NC(=O)CN1C(=O)c2ccccc2C1=O,270 °C
20,O=C(NCc1ccc(Cl)cc1)c1cn2c3c(cc(CN4CCOCC4)cc3c1=O)CN(Cc1ccccc1)C2=O,201 to 204 °C
21,O=C1NCCN1c1ccncc1,204 to 207 °C

# Results, then the molecule that gave them:
row,melting point,Compound
1,200 to 201 °C,COC(=O)C(C)(C)c1ccc(C(=O)Nc2cn3cc(-c4ccsc4)ccc3n2)cc1
2,152 to 153 °C,CCC(=O)c1cccc(S(N)(=O)=O)c1
3,> 200 °C,CCOC(=O)c1ccc(-c2cnc3c(c2)NC(=O)CN3)cc1
4,133 to 135 °C,CCC(C)C(=O)c1nc(C)nc2c1c(C)c(C)n2-c1c(C)cc(C)cc1C (configuration not stated)
5,161 to 163 °C,COc1ccc(C2=NN(C3CCN(S(=O)(=O)c4ccc(C#N)cc4)CC3)C(=O)C(C)(C)C2)cc1OC
6,160 °C,COc1cccc(OC)c1-c1cc(C(=O)NC2(C(=O)O)C3CCCC2CCC3)nn1-c1ccc(C(=O)N(C)CCCN(C)C)cc1C(C)C (configuration not stated)
7,53 to 54 °C,COc1ccc(C(C)(O)c2cc(OCc3ccccc3)ccc2OC)cn1 (configuration not stated)
8,82 to 84 °C,CCOC(=O)c1csc(-c2ccccc2[N+](=O)[O-])n1
9,36 to 38 °C,CCCCCCCCOc1cc(OC)ccc1O
10,160 °C,COc1ccc(-c2nc3cc(F)ccc3s2)cc1OC(=O)c1ccccc1
11,56 to 68 °C,C#CC1(Oc2ccc(F)cc2[N+](=O)[O-])CCN(C(=O)OCC)CC1
12,134 to 138 °C,Cc1ccc(S(=O)(=O)c2ccc3[nH]c(C)c(CCNC(=O)OC(C)(C)C)c3c2)cc1
13,138 °C,COCCn1ccc2cc(NC(=O)/C=C/c3ccc(C(C)(C)C)cc3)ccc21
14,215 °C,COC(=O)c1c(C(=O)O)nc2cc(Cl)ccc2c1O
15,98.5 to 100 °C,COC(=O)C(C)c1ccc2c(c1)Cc1cc(OC)ccc1-2 (configuration not stated)
16,151 °C,CC(C)(C)c1cc2c(c(C(=O)Nc3ccc(S(=O)(=O)C(F)(F)F)cc3Cl)c1O)CCCC2

row,melting point,Compound
1,170 to 171 °C,COc1ccc(C2=NN(C3CCSCC3)C(=O)[C@H]3CC=CC[C@@H]23)cc1Cl (relative stereo)
2,163 to 164 °C,CCOC(=O)c1cn(C(c2ccccc2)(c2ccccc2)c2ccccc2)cn1
3,78 to 79 °C,COc1ccc(CC(=O)O)cc1C12CC3CC(CC(C3)C1)C2
4,163 to 165 °C,COc1cc(C#N)ccc1C(Br)C(Br)C(=O)c1ccc(C#N)cc1 (configuration not stated)
5,84 to 85 °C,CCOC(=O)c1cc2cc(OC)c(OC)cc2s1
6,72 to 74 °C,Cc1cc(C(=CC(=O)c2ccc(Cl)cc2)C(F)(F)F)ccc1NC(=O)OC(C)(C)C
7,285 to 287 °C,COc1ccc(-c2ccc3c(c2)C(=O)NC3=O)c2c1OCCO2
8,109 to 111 °C,BrCCCc1ccc(C=Cc2cc3ccccc3s2)s1
9,106 to 107 °C,COCCOc1ccc(CSc2cnn(C(C)(C)C)c(=O)c2Cl)cc1
10,274 °C,CNCc1cc(OC)c(-c2ccc(C[C@H](NC(=O)c3c(Cl)cccc3Cl)C(=O)O)cc2)c(OC)c1
11,159 to 161 °C,Cc1[nH]c(=O)n(-c2cc(C(=O)OC(C)C)c(Cl)cc2F)c(=O)c1SC#N
12,137 to 140 °C,COC(=O)c1ccc(Cc2cn(C)c3ccc(C(=O)OC)cc23)c(OC)c1
13,38 to 42 °C,COc1cccc(CN2CCCCc3cc(CN(O)C(N)=O)ccc32)c1
14,121 °C,CCc1c(-c2cnccn2)ssc1=S
15,174 to 176 °C,COC1(c2cccc(S(=O)(=O)c3ccc4c(c3)sc(=O)n4C)c2)CCOCC1
16,186 to 187 °C,COCc1nc2c(NCc3c(C)cccc3C)cc(C(=O)NCCO)cc2n1C
